According to ChEMBL document CHEMBL1201862, “PubChem BioAssay data set” (2004):
Active and inactive are the calls of the source.

Tests used:
[1] = target: Sphingosine 1-phosphate receptor 2 (Homo sapiens, UniProt O95136); experiment: Late-stage fluorescence-based dose-response cell-based counterscreen assay to identify agonists of the Sphingosine 1-Phosphate Receptor 3 (S1P3): Sphingosine 1-Phosphate Receptor 2 (S1P2) agonist assay.; assay type: functional
[2] = target: Sphingosine 1-phosphate receptor 4 (Homo sapiens, UniProt O95977); experiment: Late-stage fluorescence-based dose-response cell-based counterscreen assay to identify agonists of the Sphingosine 1-Phosphate Receptor 3 (S1P3): Sphingosine 1-Phosphate Receptor 4 (S1P4) agonist assay.; assay type: functional
Fatty acid synthase [3] = target: T1, Fatty acid synthase (Homo sapiens, UniProt P49327); experiment: FAS thioesterase domain inhibitors, dose response, biochemical, endpoint fluorescence intensity, uHTS hits (AID 624327); assay type: functional;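 also: fluorescence from hydrolysis of an O-methyl fluorescein acyl ester substrate by the enzyme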
Fatty acid synthase [4] = target: T1, Fatty acid synthase; experiment: FAS thioesterase domain inhibitors, dose response, biochemical, kinetic fluorescence intensity (AID 624326); assay type: functional;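 also: rate of fluorescence rise from hydrolysis of a fluorogenic O-methyl fluorescein ester substrate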
[5] = nonselective inhibitors of cellular cAMP signaling, dose response, counter-screen for MC4R biased antagonist project, cell-based, TR-FRET cAMP detection (AID 602305); assay type: functional;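 also: U2OS cells stimulated with forskolin near its EC80 as the cAMP inducer; potency is for inhibition of forskolin-stimulated cAMP signaling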
Melanocortin receptor 4 = Melanocortin receptor 4 (Homo sapiens, UniProt P32245); experiment: MC4R antagonist potency on cAMP, dose response, cell-based, TR-FRET, biased antagonists (AID 602298); assay type: functional;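 also: antagonist potency against agonist-stimulated cAMP production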
[6] = target: T2, Sentrin-specific protease 7 (Homo sapiens, UniProt Q9BQF6); experiment: SENP7 protease inhibitors, SAR follow-up, biochemical, luminescence (AID 504497); assay type: functional
T2 sequence (Q9BQF6 whole entry): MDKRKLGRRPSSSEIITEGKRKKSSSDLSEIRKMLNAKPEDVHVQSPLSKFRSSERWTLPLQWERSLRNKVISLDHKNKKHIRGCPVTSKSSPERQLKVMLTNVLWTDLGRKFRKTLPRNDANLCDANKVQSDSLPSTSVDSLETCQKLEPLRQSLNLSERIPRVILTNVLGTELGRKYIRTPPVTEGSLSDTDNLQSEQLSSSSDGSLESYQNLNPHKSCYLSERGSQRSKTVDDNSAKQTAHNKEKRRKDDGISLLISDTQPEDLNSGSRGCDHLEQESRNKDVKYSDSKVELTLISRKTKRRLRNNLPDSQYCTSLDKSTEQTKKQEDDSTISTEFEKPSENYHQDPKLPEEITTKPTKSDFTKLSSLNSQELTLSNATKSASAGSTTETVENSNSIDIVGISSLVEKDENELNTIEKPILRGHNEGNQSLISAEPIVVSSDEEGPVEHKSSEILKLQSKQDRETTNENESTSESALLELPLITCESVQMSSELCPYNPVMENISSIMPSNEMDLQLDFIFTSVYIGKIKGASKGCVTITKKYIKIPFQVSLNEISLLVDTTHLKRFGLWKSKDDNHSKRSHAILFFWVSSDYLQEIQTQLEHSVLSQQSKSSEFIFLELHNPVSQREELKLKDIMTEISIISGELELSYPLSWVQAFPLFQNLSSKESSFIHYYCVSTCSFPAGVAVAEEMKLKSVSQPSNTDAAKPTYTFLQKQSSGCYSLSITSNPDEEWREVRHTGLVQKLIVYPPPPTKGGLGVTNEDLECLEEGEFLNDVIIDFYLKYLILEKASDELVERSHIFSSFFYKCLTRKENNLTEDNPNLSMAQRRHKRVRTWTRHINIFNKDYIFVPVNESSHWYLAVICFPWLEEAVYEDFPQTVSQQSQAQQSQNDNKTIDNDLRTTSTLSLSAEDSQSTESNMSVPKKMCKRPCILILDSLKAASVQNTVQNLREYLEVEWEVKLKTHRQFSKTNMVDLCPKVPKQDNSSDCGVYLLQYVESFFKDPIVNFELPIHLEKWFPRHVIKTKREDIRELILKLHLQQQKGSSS

[7] = target: T3, Sentrin-specific protease 6 (Homo sapiens, UniProt Q9GZR1); experiment: SAR Analysis of small molecule inhibitors of Sentrin-specific protease 6 (SENP6) using a Luminescent assay. [Related pubchem assays (depositor defined):AID2582, AID2599]; assay type: functional
T3 sequence (Q9GZR1 whole entry): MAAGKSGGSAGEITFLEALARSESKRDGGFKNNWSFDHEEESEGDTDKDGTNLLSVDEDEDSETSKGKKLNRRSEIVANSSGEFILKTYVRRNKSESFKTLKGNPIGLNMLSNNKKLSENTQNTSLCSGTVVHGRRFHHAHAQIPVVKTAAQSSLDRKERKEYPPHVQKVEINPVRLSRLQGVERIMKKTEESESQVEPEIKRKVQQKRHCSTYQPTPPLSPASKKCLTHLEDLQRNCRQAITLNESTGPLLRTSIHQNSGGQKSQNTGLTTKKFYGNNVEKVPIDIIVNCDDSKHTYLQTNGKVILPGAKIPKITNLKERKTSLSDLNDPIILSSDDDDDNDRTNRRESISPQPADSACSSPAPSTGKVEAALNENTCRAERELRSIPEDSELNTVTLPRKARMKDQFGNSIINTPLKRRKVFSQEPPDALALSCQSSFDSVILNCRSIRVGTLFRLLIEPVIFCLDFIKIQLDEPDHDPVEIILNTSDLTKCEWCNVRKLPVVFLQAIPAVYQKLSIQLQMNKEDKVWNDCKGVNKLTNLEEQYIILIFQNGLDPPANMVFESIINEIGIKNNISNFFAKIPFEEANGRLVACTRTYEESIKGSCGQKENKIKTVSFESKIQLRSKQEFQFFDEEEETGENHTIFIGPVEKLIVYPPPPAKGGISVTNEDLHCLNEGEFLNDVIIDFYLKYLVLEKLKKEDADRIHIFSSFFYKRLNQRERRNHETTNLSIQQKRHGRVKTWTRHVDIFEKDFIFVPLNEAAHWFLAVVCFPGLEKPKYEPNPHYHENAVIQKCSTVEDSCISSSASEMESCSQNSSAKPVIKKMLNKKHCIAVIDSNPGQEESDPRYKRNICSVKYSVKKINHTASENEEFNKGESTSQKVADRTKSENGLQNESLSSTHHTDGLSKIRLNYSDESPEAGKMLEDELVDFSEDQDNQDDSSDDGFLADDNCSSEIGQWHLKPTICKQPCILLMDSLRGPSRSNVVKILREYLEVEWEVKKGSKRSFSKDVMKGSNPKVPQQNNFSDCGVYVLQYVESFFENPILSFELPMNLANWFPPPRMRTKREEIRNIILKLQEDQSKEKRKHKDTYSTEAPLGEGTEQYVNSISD

[8] = target: T4, Sentrin-specific protease 8 (Homo sapiens, UniProt Q96LD8); experiment: SENP8 protease inhibitors, SAR follow-up, biochemical, luminescence (AID 504501); assay type: functional
T4 sequence (Q96LD8 whole entry): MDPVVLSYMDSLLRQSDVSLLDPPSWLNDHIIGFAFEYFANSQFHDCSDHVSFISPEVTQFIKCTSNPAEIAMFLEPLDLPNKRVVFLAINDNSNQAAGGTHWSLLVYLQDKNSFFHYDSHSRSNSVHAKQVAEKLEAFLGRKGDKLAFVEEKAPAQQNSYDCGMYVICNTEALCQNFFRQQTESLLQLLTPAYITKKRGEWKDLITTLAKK

Caspase-3 [9] = target: T5, Caspase-3 (Homo sapiens, UniProt P42574); experiment: SAR Analysis of small molecule inhibitors of Sentrin-specific proteases (SENPs) using a Caspase-3 Selectivity assay. [Related pubchem assays (depositor defined):AID2540, AID2599, AID434973, AID489001]; assay type: functional
T5 sequence (P42574 whole entry): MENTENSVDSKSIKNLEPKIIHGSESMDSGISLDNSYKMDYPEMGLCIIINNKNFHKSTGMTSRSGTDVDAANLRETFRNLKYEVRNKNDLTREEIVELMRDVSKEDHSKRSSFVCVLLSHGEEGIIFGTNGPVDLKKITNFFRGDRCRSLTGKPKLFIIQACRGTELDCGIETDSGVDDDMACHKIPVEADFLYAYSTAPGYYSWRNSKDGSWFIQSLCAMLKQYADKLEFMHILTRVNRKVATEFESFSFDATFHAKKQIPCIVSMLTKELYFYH

[10] = target: T4, Sentrin-specific protease 8; experiment: SENP8 protease inhibitors, SAR follow-up, biochemical, luminescence, set 2 (AID 588601); assay type: functional
[11] = target: T2, Sentrin-specific protease 7; experiment: SENP7 protease inhibitors, SAR follow-up, biochemical, luminescence, set 2 (AID 588600); assay type: functional
[12] = target: T3, Sentrin-specific protease 6; experiment: SENP6 protease inhibitors, SAR follow-up, biochemical, luminescence, set 2 (AID 588598); assay type: functional
Caspase-3 [13] = target: T5, Caspase-3; experiment: caspase-3 inhibitors as off-family protease, SAR follow-up, selectivity assay for SENP protease inhibitor project, biochemical, luminescence, set 2 (AID 588599); assay type: functional
[14] = target: Neuropeptides B/W receptor type 1 (Homo sapiens, UniProt P48145); experiment: GPR7 antagonist potency, late-stage follow-up, cell-based, fluorescence, dose response, set 5 (AID 588566); assay type: functional
[15] = target: Melanin-concentrating hormone receptor 1 (Homo sapiens, UniProt Q99705); experiment: Late-stage fluorescence-based counterscreen for antagonists of the G-protein coupled receptor 7 (GPR7): cell-based dose response assay to identify antagonists of the melanin-concentrating hormone receptor 1 (MCHR1) Set 5.; assay type: functional
[16] = target: Interleukin-1 receptor-associated kinase 4 (Homo sapiens, UniProt Q9NWZ3); assay type: functional
[17] = target: Serine/threonine-protein kinase PAK 1 (Homo sapiens, UniProt Q13153); assay type: functional
[18] = target: MAP kinase-interacting serine/threonine-protein kinase 2 (Homo sapiens, UniProt Q9HBH9); assay type: functional
[19] = target: Dual specificity protein kinase CLK4 (Homo sapiens, UniProt Q9HAZ1); assay type: functional
[20] = target: Mitogen-activated protein kinase kinase kinase kinase 4 (Homo sapiens, UniProt O95819); assay type: functional
[21] = target: Mitogen-activated protein kinase kinase kinase kinase 5 (Homo sapiens, UniProt Q9Y4K4); assay type: functional;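 also: measured as one member of a kinome-spanning kinase panel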
Insulin-degrading enzyme [22] = target: T6, Insulin-degrading enzyme (Homo sapiens, UniProt P14735); experiment: activators of recombinant IDE enzyme, dose response, counter-screen for IDE activator project, biochemical, fluorescence polarization (AID 588681)
Beta Lactamase = Beta Lactamase (Pseudomonas aeruginosa, UniProt Q932Y6); experiment: beta-lactamase reporter inhibitor potency, dose response, artefact control for TLR9-MyD88 binding inhibitor project, BLA reporter cells, FRET fluorescence (AID 588341); assay type: cell-based;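 also: cell based assay in CHO-K1 cells stably expressing beta-lactamase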
HEK293 [23] = experiment: HEK cell cytotoxicity by LDH release, dose response, cytotoxicity control for IDE activator project, fluorescence, HEK cells (AID 588440); assay type: functional, cell-based; conditions: Homo sapiens;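 also: cytotoxicity by LDH release measuring loss of membrane integrity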
HEK293 [24] = experiment: optical interference in Abeta FP readout, dose response, artefact control for IDE activator project, biochemical, fluorescence polarization (AID 588442); assay type: functional, cell-based; conditions: Homo sapiens
CHO = experiment: cytotoxicity in TLR9-MyD88 CHO cells, dose response, cytotoxicity control for TLR9-MyD88 binding inhibitor project, cell-based, luminescence (AID 588339); assay type: functional, hamster; conditions: Cricetulus griseus;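 also: CHO cells stably coexpressing TLR9 and MyD88 fusions from primary screen; compound exposure lasted 48 hours before viability readout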
[25] = Luminescence Cell-Based Dose Retest to Confirm Inhibitors of Cancer Stem Cells. [Related pubchem assays (depositor defined):AID2717, AID2721]; assay type: functional; conditions: Homo sapiens
Insulin-degrading enzyme [26] = target: T6, Insulin-degrading enzyme; experiment: activators of endogenous IDE in HEK cells, dose response, cell-based, fluorescence polarization (AID 588439); assay type: functional
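For AC50 in this document: cells exposed to compound for roughly 70 hours or longer before luminescence read.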

T1 sequence (P49327 whole entry, the tested form may be a part): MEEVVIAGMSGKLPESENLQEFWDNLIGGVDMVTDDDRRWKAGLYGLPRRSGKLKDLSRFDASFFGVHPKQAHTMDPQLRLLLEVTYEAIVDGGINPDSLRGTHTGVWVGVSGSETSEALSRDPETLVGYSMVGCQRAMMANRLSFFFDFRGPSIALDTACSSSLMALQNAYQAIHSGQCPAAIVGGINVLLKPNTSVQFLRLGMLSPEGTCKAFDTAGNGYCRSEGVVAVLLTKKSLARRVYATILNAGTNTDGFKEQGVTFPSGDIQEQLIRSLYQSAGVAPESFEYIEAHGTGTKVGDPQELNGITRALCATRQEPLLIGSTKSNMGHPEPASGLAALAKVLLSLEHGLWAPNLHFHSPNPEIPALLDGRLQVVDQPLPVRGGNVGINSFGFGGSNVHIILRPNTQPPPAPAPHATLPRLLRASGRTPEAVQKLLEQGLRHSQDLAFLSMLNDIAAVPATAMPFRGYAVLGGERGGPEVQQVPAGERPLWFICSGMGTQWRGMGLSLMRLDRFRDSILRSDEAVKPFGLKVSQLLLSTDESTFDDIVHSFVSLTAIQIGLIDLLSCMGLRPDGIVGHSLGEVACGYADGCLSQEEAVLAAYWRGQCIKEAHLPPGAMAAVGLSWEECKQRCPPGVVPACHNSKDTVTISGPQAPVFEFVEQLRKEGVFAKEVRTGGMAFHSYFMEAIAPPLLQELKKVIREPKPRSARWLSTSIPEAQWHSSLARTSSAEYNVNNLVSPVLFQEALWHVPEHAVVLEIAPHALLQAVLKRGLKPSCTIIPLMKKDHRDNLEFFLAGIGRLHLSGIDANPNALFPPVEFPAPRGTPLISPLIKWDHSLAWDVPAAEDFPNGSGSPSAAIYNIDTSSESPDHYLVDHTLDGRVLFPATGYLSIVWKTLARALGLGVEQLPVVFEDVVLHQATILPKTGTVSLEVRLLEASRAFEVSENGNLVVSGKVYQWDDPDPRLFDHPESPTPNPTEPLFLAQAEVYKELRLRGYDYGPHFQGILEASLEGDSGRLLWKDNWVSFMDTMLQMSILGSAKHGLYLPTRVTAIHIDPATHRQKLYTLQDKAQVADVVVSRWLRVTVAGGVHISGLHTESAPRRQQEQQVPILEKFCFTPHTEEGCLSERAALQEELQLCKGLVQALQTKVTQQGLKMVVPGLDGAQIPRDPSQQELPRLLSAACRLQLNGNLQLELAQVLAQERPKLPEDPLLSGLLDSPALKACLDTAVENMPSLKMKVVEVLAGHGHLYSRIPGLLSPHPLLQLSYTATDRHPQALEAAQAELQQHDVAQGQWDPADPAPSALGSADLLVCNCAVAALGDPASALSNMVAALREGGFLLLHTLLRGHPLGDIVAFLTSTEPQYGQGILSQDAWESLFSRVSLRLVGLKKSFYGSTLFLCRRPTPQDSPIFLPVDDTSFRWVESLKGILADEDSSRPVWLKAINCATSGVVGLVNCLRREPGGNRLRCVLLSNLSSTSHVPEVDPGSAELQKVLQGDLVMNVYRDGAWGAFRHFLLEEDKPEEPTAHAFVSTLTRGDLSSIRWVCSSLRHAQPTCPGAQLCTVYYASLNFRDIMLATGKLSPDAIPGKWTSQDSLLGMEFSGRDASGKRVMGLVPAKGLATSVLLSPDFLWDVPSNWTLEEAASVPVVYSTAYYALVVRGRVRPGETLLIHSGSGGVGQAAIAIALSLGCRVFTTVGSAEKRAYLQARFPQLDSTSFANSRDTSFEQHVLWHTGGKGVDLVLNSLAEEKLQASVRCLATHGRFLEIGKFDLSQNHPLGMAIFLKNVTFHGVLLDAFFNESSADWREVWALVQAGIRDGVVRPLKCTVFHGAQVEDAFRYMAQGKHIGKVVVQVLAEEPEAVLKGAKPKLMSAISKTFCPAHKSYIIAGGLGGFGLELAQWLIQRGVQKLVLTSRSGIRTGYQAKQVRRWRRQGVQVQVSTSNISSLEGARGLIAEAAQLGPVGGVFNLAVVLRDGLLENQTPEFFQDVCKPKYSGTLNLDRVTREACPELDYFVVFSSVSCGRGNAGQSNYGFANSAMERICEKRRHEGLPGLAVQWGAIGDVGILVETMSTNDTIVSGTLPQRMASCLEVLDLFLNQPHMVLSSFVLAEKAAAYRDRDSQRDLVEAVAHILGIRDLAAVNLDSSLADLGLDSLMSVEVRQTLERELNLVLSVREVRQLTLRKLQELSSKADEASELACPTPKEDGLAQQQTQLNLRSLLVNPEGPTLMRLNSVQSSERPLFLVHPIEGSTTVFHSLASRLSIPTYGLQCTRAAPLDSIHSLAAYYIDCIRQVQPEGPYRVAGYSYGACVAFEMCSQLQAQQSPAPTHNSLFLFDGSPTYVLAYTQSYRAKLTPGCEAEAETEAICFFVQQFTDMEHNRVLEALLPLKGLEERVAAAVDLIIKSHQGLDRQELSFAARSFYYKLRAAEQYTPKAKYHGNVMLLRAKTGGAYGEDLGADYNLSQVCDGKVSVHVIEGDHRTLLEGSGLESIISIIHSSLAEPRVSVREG
T6 sequence (P14735 whole entry): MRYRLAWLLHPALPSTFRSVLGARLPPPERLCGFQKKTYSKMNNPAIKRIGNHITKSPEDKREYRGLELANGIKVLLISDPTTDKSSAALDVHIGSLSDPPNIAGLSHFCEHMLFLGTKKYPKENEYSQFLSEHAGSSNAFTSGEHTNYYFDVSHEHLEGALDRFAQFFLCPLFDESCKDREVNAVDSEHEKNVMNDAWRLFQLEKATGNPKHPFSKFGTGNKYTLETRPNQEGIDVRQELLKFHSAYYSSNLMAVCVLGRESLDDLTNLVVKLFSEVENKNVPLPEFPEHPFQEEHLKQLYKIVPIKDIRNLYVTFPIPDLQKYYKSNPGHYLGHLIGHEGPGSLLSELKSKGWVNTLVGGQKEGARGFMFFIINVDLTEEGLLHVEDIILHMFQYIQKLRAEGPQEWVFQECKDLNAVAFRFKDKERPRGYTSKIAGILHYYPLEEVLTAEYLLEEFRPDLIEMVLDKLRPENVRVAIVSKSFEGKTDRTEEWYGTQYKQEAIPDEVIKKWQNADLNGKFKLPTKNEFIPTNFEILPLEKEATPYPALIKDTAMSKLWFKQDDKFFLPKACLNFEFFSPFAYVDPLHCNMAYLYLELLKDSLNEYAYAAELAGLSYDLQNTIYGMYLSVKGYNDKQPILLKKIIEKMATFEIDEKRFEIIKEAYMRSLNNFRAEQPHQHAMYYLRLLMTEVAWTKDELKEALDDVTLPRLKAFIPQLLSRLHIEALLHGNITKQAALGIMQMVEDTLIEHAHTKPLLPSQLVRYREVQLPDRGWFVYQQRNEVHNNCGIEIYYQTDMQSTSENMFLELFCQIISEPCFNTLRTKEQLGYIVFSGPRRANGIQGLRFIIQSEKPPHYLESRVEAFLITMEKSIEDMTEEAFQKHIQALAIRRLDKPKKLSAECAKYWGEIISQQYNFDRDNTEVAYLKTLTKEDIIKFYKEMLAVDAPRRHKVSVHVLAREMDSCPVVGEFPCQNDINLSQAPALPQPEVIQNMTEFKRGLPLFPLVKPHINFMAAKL
Chain of Mitogen-activated protein kinase kinase kinase kinase 4 (O95819 whole entry): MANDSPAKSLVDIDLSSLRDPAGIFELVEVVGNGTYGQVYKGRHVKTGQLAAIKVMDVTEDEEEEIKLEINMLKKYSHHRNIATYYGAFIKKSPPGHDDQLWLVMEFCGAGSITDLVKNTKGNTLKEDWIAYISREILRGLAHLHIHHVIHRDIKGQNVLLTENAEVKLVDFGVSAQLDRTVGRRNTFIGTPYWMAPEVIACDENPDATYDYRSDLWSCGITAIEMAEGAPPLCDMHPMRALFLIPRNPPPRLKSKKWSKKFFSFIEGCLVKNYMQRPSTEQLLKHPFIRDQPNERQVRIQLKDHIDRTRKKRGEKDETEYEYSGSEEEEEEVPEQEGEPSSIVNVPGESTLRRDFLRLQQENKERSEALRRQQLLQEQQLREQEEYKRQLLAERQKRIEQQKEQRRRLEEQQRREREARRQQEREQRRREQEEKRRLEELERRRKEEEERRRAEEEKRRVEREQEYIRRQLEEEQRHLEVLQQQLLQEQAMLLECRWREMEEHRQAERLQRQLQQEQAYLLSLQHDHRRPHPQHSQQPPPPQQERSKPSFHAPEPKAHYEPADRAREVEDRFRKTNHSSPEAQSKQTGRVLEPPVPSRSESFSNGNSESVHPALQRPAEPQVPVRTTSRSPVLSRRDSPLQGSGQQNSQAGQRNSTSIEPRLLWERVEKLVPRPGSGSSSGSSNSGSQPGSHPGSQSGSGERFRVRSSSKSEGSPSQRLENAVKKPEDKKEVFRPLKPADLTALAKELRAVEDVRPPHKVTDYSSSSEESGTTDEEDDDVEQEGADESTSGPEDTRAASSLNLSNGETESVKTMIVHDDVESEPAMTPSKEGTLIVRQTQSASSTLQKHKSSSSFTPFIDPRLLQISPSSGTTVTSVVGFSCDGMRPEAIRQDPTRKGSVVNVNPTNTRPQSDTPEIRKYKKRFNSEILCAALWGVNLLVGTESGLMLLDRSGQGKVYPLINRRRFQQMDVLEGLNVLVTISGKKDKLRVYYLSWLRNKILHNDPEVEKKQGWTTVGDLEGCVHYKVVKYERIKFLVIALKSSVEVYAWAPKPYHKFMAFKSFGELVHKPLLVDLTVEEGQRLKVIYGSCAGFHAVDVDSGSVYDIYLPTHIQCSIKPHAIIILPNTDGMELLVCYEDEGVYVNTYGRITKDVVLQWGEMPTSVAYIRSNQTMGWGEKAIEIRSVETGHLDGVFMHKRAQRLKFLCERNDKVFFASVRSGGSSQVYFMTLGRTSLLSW
Chain of Melanin-concentrating hormone receptor 1 (Q99705 whole entry): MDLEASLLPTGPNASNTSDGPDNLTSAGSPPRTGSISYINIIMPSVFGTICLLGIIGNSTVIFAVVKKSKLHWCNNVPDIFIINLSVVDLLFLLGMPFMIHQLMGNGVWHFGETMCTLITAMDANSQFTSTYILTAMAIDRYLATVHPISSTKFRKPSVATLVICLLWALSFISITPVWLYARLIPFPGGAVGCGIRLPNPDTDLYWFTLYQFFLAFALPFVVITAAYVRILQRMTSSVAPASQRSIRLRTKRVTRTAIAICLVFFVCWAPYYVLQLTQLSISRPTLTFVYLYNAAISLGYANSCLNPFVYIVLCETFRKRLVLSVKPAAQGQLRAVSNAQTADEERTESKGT

## CCCc1cc(C(=O)NC2CCCCC2)no1
[1]
  EC50: > 50 µM (inactive)
[2]
  EC50: > 50 µM (inactive)

## O=C(Oc1ccccc1C(=O)Nc1ccccc1)c1ccc(Br)c([N+](=O)[O-])c1
Fatty acid synthase [3]
  IC50: 4.66 µM (active)
Fatty acid synthase [4]
  IC50: 5.97 µM (active)
[5]
  IC50: > 64.6 µM (inactive)
Melanocortin receptor 4
  IC50: > 64.6 µM (inactive)

## O=C(Nc1nc2c(F)cccc2s1)c1cccs1
[6]
  IC50: 2 µM (active)
[7]
  IC50: 3.5 µM (active)
[8]
  IC50: 4.1 µM (active)
Caspase-3 [9]
  IC50: 3.6 µM (active)
[10]
  IC50: 2.66 µM (active)
[11]
  IC50: 2.7 µM (active)
[12]
  IC50: 3.02 µM (active)
Caspase-3 [13]
  IC50: 3.68 µM (active)

## CCOc1ccc(Oc2c(S(C)(=O)=O)cnn(Cc3cccc4ccccc34)c2=O)cc1
[14]
  IC50: 2.55 µM (active)
[15]
  IC50: 0.804 µM (active)

## CC(=O)c1cccc(-c2cnc3ccccc3c2)c1
[16]
  Ki: > 10 µM (inactive)
[17]
  Ki: > 10 µM (inactive)
[18]
  Ki: 6.31 µM (active)
[19]
  Ki: 3.98 µM (active)
[20]
  Ki: 1.26 µM (active)
[21]
  Ki: 1 µM (active)

## CCCCCCSc1cc(-c2nc3cnccn3c2NCCCC)ccc1OC
Insulin-degrading enzyme [22]
  EC50: > 54.7 µM (inactive)
Beta Lactamase
  IC50: 7.42 µM (active)
HEK293 [23]
  IC50: 33.6 µM (inactive)
HEK293 [24]
  EC50: > 56 µM (inactive)
CHO
  IC50: 21.2 µM (inactive)
[25]
  AC50: 4.56 µM (active)
Insulin-degrading enzyme [26]
  EC50: 13.9 µM (inactive)
